This note sets out measurements from PubChem BioAssay AID651703 (Broad Institute, 2012).

In the assay the target is Transforming acidic coiled-coil-containing protein 3 (Homo sapiens) (UniProt Q9Y6A5). Put plainly: inhibition of ARNT PAS-B/TACC3 complex formation – biochemical, AlphaScreen, cherry-picked samples, confirmation (AID 651703).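 Also: TACC3 partner is the GST-tagged E629A mutant dimer; hits lower the signal meaning they disrupt ARNT binding to TACC3.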 The conditions noted are these: AlphaScreen His-ARNT PAS-B / GST-TACC3 binding, luminescence. In general terms: In Alpha technology, singlet oxygen from a donor bead excites a nearby acceptor bead.
By AC50 is commonly meant the concentration at which the activity in the assay is half-maximal. With `CCN(CC)S(=O)(=O)c1ccc(NN)nc1`, the half-maximal activity concentration (AC50) is 8.98 µM. The figure for `O=C(NC[C@H]1[C@@H](c2ccccc2)[C@@H](CO)N1Cc1ccccn1)C1CC1` is 48.4 µM; for `COc1cc(OC)c2c(-c3ccccc3)cc(=O)oc2c1C(CCN1CCCCC1)c1ccc(N(C)C)cc1` (stereo not drawn) it is 7.83 µM.

In the case of `N#Cc1ccc(OCC(=O)NCCCn2ccnc2)cc1`, the AC50 was 8.65 µM. As for `COc1cc(/C=N/N(CCO)C2=NS(=O)(=O)c3ccccc32)cc(OC)c1OC`, the figure is 15.6 µM. The figure for `CC(C)[C@H](NC(=O)c1ccccc1Cl)C(=O)Nc1nc(-c2ccccn2)cs1` is 6.72 µM.

In the case of `COc1ccccc1-c1nnc(NC(=O)Cc2ccccc2)o1`, the concentration at half-maximal activity (AC50) is 35 µM. As for `COc1cc(OC)cc(C(=O)Nc2nnc(-c3cccnc3)o2)c1`, the figure is 20.8 µM; as for `CCC(C)Nc1nc(-c2ccccn2)nc2ccccc12` (stereo not drawn), 8.57 µM; as for `O=C(c1ccco1)[C@@H]1[C@@H]2C(=O)N(c3ccccc3)C(=O)[C@@H]2C2c3ccccc3C=CN21` (stereo partly drawn), 45.9 µM.

On to `O=S(=O)(N[C@@H]1CC[C@@H](CCn2cc(-c3ccccn3)nn2)O[C@@H]1CO)c1cccc(F)c1`, for which the concentration at half-maximal activity (AC50) is 13.4 µM. As for `CC(NC1=CC(=O)c2cccnc2C1=O)C(O)c1ccccc1` (stereo not drawn), the figure is 15.5 µM; as for `Cc1nc2ncccn2c1-c1csc(Nc2ccc(O)cc2)n1`, 4.61 µM; as for `CCCN(CCC)c1nc(-c2ccccn2)nc2ccccc12`, 15.5 µM. As for `O=C(Oc1c(CN2CCOCC2)cc(Cl)c2cccnc12)c1ccccc1`, the figure is 18.3 µM; as for `O=C(N[C@H]1CC[C@H](CCn2cc(-c3ccccn3)nn2)O[C@@H]1CO)c1ccncc1`, 14.8 µM; as for `OCCN1CCN(C(=S)c2ccc(Cl)c(Cl)c2)CC1`, 33.2 µM. As for `Nc1nc(-c2ccccn2)nc(N)c1Cc1ccccc1F`, the figure is 3.39 µM; as for `CS(=O)(=O)c1cccc(-c2nnc(NC(=O)c3ccc(S(=O)(=O)N4CCCC4)cc3)o2)c1`, 22.5 µM; as for `Cc1ccccc1-n1c(SCC(=O)Nc2ccc3c(c2)OCO3)nnc1-c1ccccn1`, 15.6 µM. On to `CCC(COC)Oc1cc(NCc2ccccc2)c2ncn(C(C)C)c2c1` (stereo not drawn), for which the AC50 was 23.9 µM. The figure for `OCCCNc1nc(-c2ccccn2)nnc1-c1ccccc1` is < 0.5 µM; for `O=C(N[C@@H]1CC[C@@H](CCn2cc(-c3ccccn3)nn2)O[C@H]1CO)c1ccccc1` it is 9.23 µM; for `Cc1cc(=O)n2c3c(c4c(cc13)c(CN(C)C)cc(=O)n4C)OC2` it is 17.7 µM. As for `COCCn1c(-c2ccccc2)cnc1N`, the figure is 31.1 µM; as for `O=C(Nc1nnc(-c2cccs2)o1)c1ccc(S(=O)(=O)N2CCOCC2)cc1`, 17.1 µM. The figure for `O=S(=O)(c1cccc2cccnc12)N1CCN(Cc2ccc(OCCO)cc2)CC1` is 48.2 µM; for `CC1=C(SCc2ccccc2)C(=O)c2ccccc2C1=O` it is 39.7 µM. Consider `CC(=O)Nc1cccc(NC(=O)CSc2ccc(-c3ccccn3)nn2)c1`, for which the AC50 was 2.78 µM. The figure for `CC(=O)NC(C)c1cc(Cl)c2cccnc2c1O` (stereo not drawn) is 6.14 µM; for `Cc1nc2ncccn2c1-c1csc(Nc2ccccc2)n1` it is 41.6 µM. In the case of `COc1ccc(/C=N/Nc2nncn2N)cc1Br`, the AC50 was 25.1 µM. The figure for `CCOc1ccc(NC(=O)c2c(NC(=O)CNCCN3CCOCC3)sc3c2CCC3)cc1` is 14.6 µM; for `Nc1ccc2nc(-c3ccccn3)[nH]c2c1` it is 10.1 µM; for `C=CCSc1nnc(-c2cccc3ccccc23)o1` it is 5.8 µM. The figure for `Cc1ccccc1C(=O)Nc1nnc(-c2ccco2)o1` is 43.1 µM; for `NC1=NN=C(N2N=C(c3ccco3)CC2(O)C(F)(F)F)n2ncnc2C1` (stereo not drawn) it is 12 µM; for `O=C(CSc1n[nH]c(-c2ccccn2)n1)Nc1cccc(Cl)c1` it is 4.78 µM. As for `CCC(=O)NC(C)c1cc(Cl)c2cccnc2c1O` (stereo not drawn), the figure is 4.72 µM; as for `O=C(COC(=O)c1cccs1)Nc1nnc(-c2ccccc2)o1`, 14.1 µM. `O=C(COc1ccc(Cl)cc1)Nc1nnc(-c2ccco2)o1`: the AC50 is 19.6 µM.

Take `O=Nc1ccc(O)c2ncccc12`: the concentration at half-maximal activity (AC50) was 13.6 µM. The figure for `COc1ccc(S(=O)(=O)N2CCCOC2CNC(=O)C(=O)NCCCn2ccnc2)cc1OC` (stereo not drawn) is 47.2 µM. As for `CCOc1cccc(/C=N/NC(=O)c2cccnc2)c1O`, the figure is 21.6 µM; as for `O=C(O)c1ncn(Cc2ccccc2)c1C(=O)O`, 13.8 µM; as for `O=c1oc2c3c4c(cc2s1)CCCN4CCC3`, 26.1 µM. On to `O=C(N/N=C/c1sc2ccccc2c1O)c1cccc2ccccc12`, for which the AC50 is 23 µM.

With `O=S(=O)(N[C@@H]1CC[C@H](CCn2cc(-c3ccccn3)nn2)O[C@H]1CO)c1cccc(F)c1`, the AC50 was 18.2 µM.

Take `CN1CCN(c2cc(-c3cc(O)c4ncccc4c3)ccn2)CC1`: the AC50 is 1.77 µM. As for `CSCc1cc(N(C)c2ccccc2)nc(-c2ccccn2)n1`, the figure is 5.86 µM. The figure for `Cc1c(CCO)c(=O)n(-c2ccccc2)n1S(=O)(=O)c1c(Cl)cc(Cl)cc1Cl` is 39.8 µM. For `COc1ccc(S(=O)(=O)n2oc(=O)cc2-c2ccccc2)cc1OC`, the AC50 is 2.6 µM. The figure for `Oc1ccc(Br)cc1/C=N/Nc1ccccn1` is 3.27 µM; for `c1ccc(-c2nnc(-c3ccccn3)nc2NCC2CC2)cc1` it is < 0.5 µM; for `Nc1ncnc(Oc2cccc3cccnc23)c1[N+](=O)[O-]` it is 11.1 µM. As for `O=C(N/N=C/c1c(O)n(CCC2=CCCCC2)c(=O)[nH]c1=O)c1ccccc1`, the figure is 19.5 µM. As for `CNc1nc(C(=O)O)nc(N2CCOCC2)n1`, the figure is 11.6 µM; as for `NC1=CC(=O)C(=O)c2ccccc21`, 38.9 µM; as for `CC(C)(C)C(=O)Nc1ccccc1C(=O)NCCCn1ccnc1`, 17.4 µM. As to `C[C@H]1CN([C@@H](C)CO)C(=O)Cc2cc(NC(=O)Nc3cccc4ccccc34)ccc2O[C@@H]1CN(C)Cc1ccc(Oc2ccccc2)cc1`, the AC50 is 47.3 µM. As for `Cc1ccc2cc(C3C(C#N)=C(N)Oc4c3ccc3cccnc43)c(=O)[nH]c2c1` (stereo not drawn), the figure is 7.43 µM; as for `O=C(Nc1ccc(Cl)cc1)O/N=C(\c1ccccc1)c1ccccn1`, 17.6 µM; as for `O=C(CSc1nnc(-c2cccnc2)o1)Nc1nccs1`, 17.7 µM. The figure for `O=C(N/N=C/c1cc([N+](=O)[O-])ccc1O)c1ccncc1` is 1.01 µM; for `O=C(CSc1ccc2nnc(-c3ccccn3)n2n1)Nc1ccccc1F` it is 28.6 µM. As for `O=C(CNCc1ccccn1)Nc1ccc([N+](=O)[O-])cc1C(=O)Nc1ccccc1F`, the figure is 3.05 µM; as for `C[C@@H](Nc1nc(-c2ccccn2)nnc1-c1ccccc1)C1CCCCC1`, 2.26 µM; as for `CC(=O)NC(c1cccs1)c1cc([N+](=O)[O-])c2cccnc2c1O` (stereo not drawn), 2.71 µM. Turning to `C/C(=N\NC(=O)Cc1ccc(Cl)cc1)c1ccccn1`, the AC50 was 10.2 µM. As for `CCOC(=O)c1c(C)[nH]c(N=Nc2cccc(C)c2)c1C`, the figure is 17.8 µM; as for `COc1cc(/C=N/Nc2nn3cnnc3c3ccccc23)ccc1O`, 6.83 µM; as for `O=C(N/N=C/c1cc(Br)ccc1OC(=O)c1ccc(Br)cc1)c1ccncc1`, 4.24 µM. As for `C/C=C/c1ccc([C@@H]2[C@H](CO)N(Cc3ccccn3)[C@H]2CNC(C)=O)cc1`, the figure is 47.8 µM.
